Usually IC50 stands for the concentration that inhibits the measured activity by half. The AUC is the area under the concentration-time curve, a measure of exposure. A higher AUC goes with high exposure. As usually defined, the Cmax is the peak of the concentration-time curve. The Tmax is the time at which the peak concentration occurs. What is called half-life is how long it takes for the measured level to halve.

Counter-ions that a name gives are not always drawn.

From US20220041583A1, “IMMUNOMODULATORS, COMPOSITIONS AND METHODS THERE OF” (BETTA PHARMACEUTICALS CO., LTD, priority 2018, published 2022) come the findings set out here.

The target in one series is T1, PD-1/PD-L1 (Homo sapiens, UniProt Q9NZQ7).
T1 construct: Recombinant human PD-L1 protein (19-238) with a His-tag at the C-terminus; purchased AcroBiosystems PD1-H5229 (PD-L1); PD1-H5257 (PD-1)
T1 sequence (Q9NZQ7 19-238): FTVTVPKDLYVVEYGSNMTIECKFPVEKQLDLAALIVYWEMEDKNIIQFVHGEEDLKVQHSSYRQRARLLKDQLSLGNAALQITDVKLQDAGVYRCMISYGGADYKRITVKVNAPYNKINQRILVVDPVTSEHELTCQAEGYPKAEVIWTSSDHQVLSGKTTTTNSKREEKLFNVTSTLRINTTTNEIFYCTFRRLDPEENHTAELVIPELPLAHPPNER
Nature of the series: PD-1/PD-L1 homogenous time-resolved fluorescence (HTRF) binding assay. The procedure:
Resolved Fluorescence (HTRF) Binding Assay
The assays were conducted in a standard black 384-well polystyrene plate with a final volume of 20 μL. Inhibitors were first serially diluted in DMSO and then added to the plate wells before the addition of other reaction components. The final concentration of DMSO in the assay was 1%. The assays were carried out at 25° C. in the PBS buffer (pH 7.4) with 0.05% Tween-20 and 0.1% BSA. Recombinant human PD-L1 protein (19-238) with a His-tag at the C-terminus was purchased from AcroBiosy stems (PD1-H5229). Recombinant human PD-1 protein (25-167) with Fc tag at the C-terminus was also purchased from AcroBiosystems (PD1-H5257). PD-L1 and PD-1 proteins were diluted in the assay buffer and 10 μL was added to the plate well. Plates were centrifuged and proteins were preincubated with inhibitors for 40 min. The incubation was followed by the addition of 10 μL of HTRF detection buffer supplemented with Europium cryptate-labeled anti-human IgG (PerkinElmer-AD0212) specific for Fc and anti-His antibody conjugated to SureLight®-Allophycocyanin (APC, PerkinElmer-AD0059H). After centrifugation, the plate was incubated at 25° C. for 60 min. Before reading on a PHERAstar FS plate reader (665 nm/620 nm ratio). Final concentrations in the assay were […] PD1, 10 nM PD-L1, 1 nM europium anti-human IgG and 20 nM anti-His-Allophycocyanin. IC50 determination was performed by fitting the curve of percent control activity versus the log of the inhibitor concentration using the GraphPad Prism 5.0 software.

Another series can be described thus: Pharmacokinetic Assay. The series is classed as in vivo. To be noted: rat; male rats, single oral (intragastric) dose 25 mg/kg, plasma. The procedure: Healthy adult male rats were subjected to single-dose of the test compounds with 10% DMSO, 10% Kolliphor® HS 15 and 80% Saline as excipients, and the rats were giving oral administration (intragastric administration) with the compounds at a dose of 25 mg/kg, Before the experiment, the animals were fasted overnight, and the fasting time last from 12 hrs prior to the administration to 4 hrs after the administration. Time of blood collection: 15 min, 30 min, 1 h, 2 h, 4 h, 7 h, 24 h. Approximately 0.3 mL of whole blood was collected from retro-orbital venous sinus, and placed into tubes that contained EDTA as an anticoagulant. The samples were centrifuged at 4° C. and 4000 rpm for 5 min. The plasma was transferred into centrifuge tubes, and stored at −20° C. till being analyzed. Concentrations of test compounds in the plasma samples were analyzed with liquid chromatography-tandem mass spectrometry (LC-MS/MS). Plasma concentration-time data of individual animals was analyzed using WinNonlin (version 4.1; Pharsight) software. Non-compartmental model was introduced in concentration analysis. The pharmacokinetic parameters of the test compounds were calculated.

`CSc1cc2oc(-c3cccc(-c4ccccc4)c3C)nc2cc1CN1CCC[C@H]1C(=O)O` [Example 2, ((2-(2-methyl-[1,1′-biphenyl]-3-yl)-6-(methylthio)benzo[d]oxazol-5-yl)methyl)-L-proline] returned an IC50 on PD-1/PD-L1 (Table 6, class symbols) of 0.1 to 10 nM. In “Pharmacokinetic Assay”, the AUC turned out to be 125 µg·h/mL, the Cmax came out at 12200 ng/mL, the Tmax came to 1 h and the half-life is 17.7 h.
The like results for `Cc1c(-c2ccccc2)cccc1-c1nc2cc(CN3CCC[C@H]3C(=O)O)c(OC(F)F)cc2o1` [Example 36, ((6-(difluoromethoxy)-2-(2-methyl-[1,1′-biphenyl]-3-yl)benzo[d]oxazol-5-yl)methyl)-L-proline] were, in that order, 0.1 to 10 nM, 119 µg·h/mL, 10200 ng/mL, 0.5 h and 9.3 h.
For the compound `COc1cc2oc(-c3cccc(-c4ccccc4)c3C)nc2cc1CNCCO` [Com. EX. No. 2, 2-(((6-methoxy-2-(2-methyl-[1,1′-biphenyl]-3-yl)benzo[d]oxazol-5-yl)methyl)amino)ethan-1-ol, reference compound], in the series “Pharmacokinetic Assay”, the AUC is 5.15 µg·h/mL, the highest concentration (Cmax) was found to be 329 ng/mL, the Tmax stood at 4 h and the half-life was 14.4 h.
For `Cc1c(-c2nc3cc(CN4CCC[C@H]4C(=O)O)c(OC(F)F)cc3o2)cccc1-c1ccccc1F` [Example 52, ((6-(difluoromethoxy)-2-(2′-fluoro-2-methyl-[1,1′-biphenyl]-3-yl)benzo[d]oxazol-5-yl)methyl)-L-proline], on PD-1/PD-L1 (Table 6, class symbols), the IC50 was in the range of 10 to 100 nM. Besides, in the series “Pharmacokinetic Assay”, the AUC was 246 µg·h/mL, the highest level (Cmax) was 20700 ng/mL, the Tmax was found to be 2 h and the half-life was 7.72 h.
Turning to `Cc1c(-c2ccccc2)cccc1-c1nc2cc(CN3CCC[C@H]3C(=O)O)c(C(F)(F)F)cc2o1` [Example 28, ((2-(2-methyl-[1,1′-biphenyl]-3-yl)-6-(trifluoromethyl)benzo[d]oxazol-5-yl)methyl)-L-proline], the IC50 at PD-1/PD-L1 (Table 6, numeric values) came to 1.4 nM. In “Pharmacokinetic Assay”, the area under the curve (AUC) was 319 µg·h/mL, the Cmax was 14400 ng/mL, the time of peak concentration (Tmax) turned out to be 0.3 h and the half-life is 41.2 h.
The like results for `Cc1c(-c2ccccc2)cccc1-c1nc2cc(CN3CCOC[C@H]3C(=O)O)c(OC(F)F)cc2o1` [Example 39, (S)-4-((6-(difluoromethoxy)-2-(2-methyl-[1,1′-biphenyl]-3-yl)benzo[d]oxazol-5-yl)methyl)morpholine-3-carboxylic acid] were, in that order, 1.1 nM, 121 µg·h/mL, 31000 ng/mL, 1 h and 10.8 h.
For the compound `CC[C@@H](NCc1cc2nc(-c3cccc(-c4ccccc4)c3C)oc2cc1OC(F)F)C(=O)O` [Example 41, (R)-2-(((6-(difluoromethoxy)-2-(2-methyl-[1,1′-biphenyl]-3-yl)benzo[d]oxazol-5-yl)methyl)amino)butanoic acid], at PD-1/PD-L1 (Table 6, class symbols), the IC50 is 10 to 100 nM.
With `Cc1c(-c2ccccc2)cccc1-c1nc2cc(CN3CCCC[C@H]3C(=O)O)c(OCC#N)cc2o1` [Com. EX. No. 1, 1-((6-(cyanomethoxy)-2-(2-methyl-[1,1′-biphenyl]-3-yl)benzo[d]oxazol-5-yl)methyl)piperidine-2-carboxylic acid, reference compound], in “Pharmacokinetic Assay”, the area under the curve (AUC) amounted to 5.84 µg·h/mL, the highest concentration (Cmax) worked out at 881 ng/mL, the Tmax amounted to 0.5 h and the half-life is 3.42 h.
In the case of `Cc1c(-c2ccccc2)cccc1-c1nc2cc(CN[C@@H](Cc3ccc(O)cc3)C(=O)O)c(OC(F)F)cc2o1` [Example 32, ((6-(difluoromethoxy)-2-(2-methyl-[1,1′-biphenyl]-3-yl)benzo[d]oxazol-5-yl)methyl)-L-tyrosine hydrochloride], the concentration for half-maximal inhibition (IC50) at PD-1/PD-L1 (Table 6, class symbols) lay within 0.1 to 10 nM.
Same read-out and setting: for `Cc1c(-c2ccccc2)cccc1-c1nc2cc3c(cc2o1)OC[C@@H](C(=O)O)NC3` [Example 70, (S)-2-(2-methyl-[1,1′-biphenyl]-3-yl)-6,7,8,9-tetrahydrooxazolo[5′,4′:4,5]benzo[1,2-f][1,4]oxazepine-7-carboxylic acid] the value was 100 to 1000 nM.
